Data as given in article PMC7177888, “Aryl-4,5-dihydro-1H-pyrazole-1-carboxamide Derivatives Bearing a Sulfonamide Moiety Show Single-digit Nanomolar-to-Subnanomolar Inhibition Constants against the Tumor-associated Human Carbonic Anhydrases IX and XII” (International Journal of Molecular Sciences, 2020).
Where two headings read alike, the source gives them in different places.

Columns and labels:
Assay in all cases: stopped-flow CO2 hydrase assay
Type in all cases: biochemical
CA II = molecular target: T1, CA II (Homo sapiens, UniProt P00918)
T1 construct: gene CA2; recombinant, obtained in-house
Procedure, shortened: (§1)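 Using an Applied Photophysics stopped-flow instrument, CO2 hydration (1.7–17 mM CO2) by in-house recombinant human carbonic anhydrase isoforms was followed at 557 nm for 10–100 s in 20 mM Hepes (pH 7.5), 20 mM Na2SO4 and 0.2 mM phenol red, after a 15 min enzyme–inhibitor preincubation at room temperature. Ki was fitted by nonlinear least squares with the Cheng–Prusoff equation from initial rates corrected for the uncatalysed reaction. Reported values average at least three determinations.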

CA XII = molecular target: T2, CA XII (Homo sapiens, UniProt O43570)
T2 construct: gene CA12; recombinant, obtained in-house
Procedure, shortened: as §1

CA I = molecular target: T3, CA I (Homo sapiens, UniProt P00915)
T3 construct: gene CA1; recombinant, obtained in-house
Procedure, shortened: as §1

CA VII = molecular target: T4, CA VII (Homo sapiens, UniProt P43166)
T4 construct: gene CA7; recombinant, obtained in-house
Procedure, shortened: as §1

CA IX = molecular target: T5, CA IX (Homo sapiens, UniProt Q16790)
T5 construct: gene CA9; recombinant, obtained in-house
Procedure, shortened: as §1

T3 sequence (P00915 2-261): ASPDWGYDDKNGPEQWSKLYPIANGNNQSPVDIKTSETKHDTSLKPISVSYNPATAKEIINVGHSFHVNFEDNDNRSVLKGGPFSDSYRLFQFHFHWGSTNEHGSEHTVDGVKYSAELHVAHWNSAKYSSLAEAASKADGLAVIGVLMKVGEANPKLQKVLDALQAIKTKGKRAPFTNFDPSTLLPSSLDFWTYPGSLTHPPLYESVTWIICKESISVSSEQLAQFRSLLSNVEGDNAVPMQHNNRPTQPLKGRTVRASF
T2 sequence (O43570 25-354): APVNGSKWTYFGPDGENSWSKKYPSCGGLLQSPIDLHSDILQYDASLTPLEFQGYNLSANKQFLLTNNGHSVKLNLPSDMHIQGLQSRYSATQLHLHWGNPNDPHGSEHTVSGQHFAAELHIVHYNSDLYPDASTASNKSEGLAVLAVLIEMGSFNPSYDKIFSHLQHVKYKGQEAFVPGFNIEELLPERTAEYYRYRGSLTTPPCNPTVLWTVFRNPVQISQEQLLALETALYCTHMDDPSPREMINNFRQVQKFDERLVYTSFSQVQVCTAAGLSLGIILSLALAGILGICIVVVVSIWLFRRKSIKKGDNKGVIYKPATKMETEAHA
T4 sequence (P43166 whole entry): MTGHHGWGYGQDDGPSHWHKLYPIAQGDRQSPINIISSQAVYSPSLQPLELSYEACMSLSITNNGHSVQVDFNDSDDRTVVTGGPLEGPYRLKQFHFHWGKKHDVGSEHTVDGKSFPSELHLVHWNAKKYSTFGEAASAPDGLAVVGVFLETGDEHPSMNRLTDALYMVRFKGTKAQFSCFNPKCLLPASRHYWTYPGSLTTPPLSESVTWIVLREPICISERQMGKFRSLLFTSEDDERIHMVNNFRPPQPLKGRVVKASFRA

SMILES	Ki (CA II) [nM]	Ki (CA XII) [nM]	Ki (CA I) [nM]	Ki (CA VII) [nM]	Ki (CA IX; read-out: KI (nM) / CA IX) [nM]	Ki (CA IX; read-out: KI (nM) / CA II) [nM]
NS(=O)(=O)c1ccc(NC(=O)N2N=C(c3ccccc3)CC2c2ccccc2)cc1 (stereo not drawn) [compound 5, 3,5-Diphenyl-4,5-dihydro-pyrazole-1-carboxylic acid (4-sulfamoyl-phenyl)-amide]	67.3	7.7	382	33.2	1.3	
NS(=O)(=O)c1ccc(NC(=O)N2N=C(c3ccccc3)CC2c2ccc(Cl)cc2)cc1 (stereo not drawn) [compound 6, 5-(4-Chlorophenyl)-3-phenyl-4,5-dihydro-pyrazole-1-carboxylic acid (4-sulfamoyl-phenyl)-amide]	8.2	1.2	36.2	7.7	1.4	
NS(=O)(=O)c1ccc(NC(=O)N2N=C(c3ccccc3)CC2c2ccc(F)cc2)cc1 (stereo not drawn) [compound 7, 5-(4-Flurophenyl)-3-phenyl-4,5-dihydro-pyrazole-1-carboxylic acid (4-sulfamoyl-phenyl)-amide]	58.2	6.3	252	2.3	1.5	
NS(=O)(=O)c1ccc(NC(=O)N2N=C(c3ccccc3)CC2c2c(F)cccc2Cl)cc1 (stereo not drawn) [compound 8, 5-(2-Chloro-6-fluorophenyl)-3-phenyl-4,5-dihydro-pyrazole-1-carboxylic acid (4-sulfamoyl-phenyl)-amide]	5.2	1.4	38.3	2.4	1.5	
NS(=O)(=O)c1ccc(NC(=O)N2N=C(c3ccccc3)CC2c2cccs2)cc1 (stereo not drawn) [compound 9, 3-Phenyl-5-thiophene-2-yl-4,5-dihydro-pyrazole-1-carboxylic acid (4-sulfamoyl-phenyl)-amide]	5.2	2.5	185	1.9	1.4	
NS(=O)(=O)c1ccc(NC(=O)N2N=C(c3ccccc3)CC2c2c3ccccc3cc3ccccc23)cc1 (stereo not drawn) [compound 10, 5-Anthracene-9-yl-3-phenyl-4,5-dihydro-pyrazole-1-carboxylic acid (4-sulfamoyl-phenyl)-amide]	7.1	6.8	293	2.4	1.3	
NS(=O)(=O)c1ccc(NC(=O)N2N=C(c3ccccc3)CC2c2ccc(Cl)cc2Cl)cc1 (stereo not drawn) [compound 11, 5-(2,4-Dichlorophenyl)-3-phenyl-4,5-dihydro-pyrazole-1-carboxylic acid (4-sulfamoyl-phenyl)-amide]	5.4	0.84	39.5	2.5	1.4	
NS(=O)(=O)c1ccc(NC(=O)N2N=C(c3ccc(Cl)cc3)CC2c2ccccc2)cc1 (stereo not drawn) [compound 12, 3-(4-Chlorophenyl)-5-phenyl-N-(4-sulfamoylphenyl)-4,5-dihydro-1H-pyrazole-1-carboxamide]	233	9.2	239	350	16.5	
Cc1ccc(C2CC(c3ccc(Cl)cc3)=NN2C(=O)Nc2ccc(S(N)(=O)=O)cc2)cc1 (stereo not drawn) [compound 13, 3-(4-Chlorophenyl)-N-(4-sulfamoylphenyl)-5-(p-tolyl)-4,5-dihydro-1H-pyrazole-1-carboxamide]	12.3	9.2	66.7	4.5	2.9	
NS(=O)(=O)c1ccc(NC(=O)N2N=C(c3ccc(Cl)cc3)CC2c2ccc(Cl)cc2)cc1 (stereo not drawn) [compound 14, 3,5-Bis(4-chlorophenyl)-N-(4-sulfamoylphenyl)-4,5-dihydro-1H-pyrazole-1-carboxamide]	12.7	1.1	238	3.3	11.4	
NS(=O)(=O)c1ccc(NC(=O)N2N=C(c3ccc(Cl)cc3)CC2c2ccc(F)cc2)cc1 (stereo not drawn) [compound 15, 3-(4-Chlorophenyl)-5-(4-fluorophenyl)-N-(4-sulfamoylphenyl)-4,5-dihydro-1H-pyrazole-1-carboxamide]	71.3	1	617	3.2	2.7	
NS(=O)(=O)c1ccc(NC(=O)N2N=C(c3ccc(Cl)cc3)CC2c2ccccc2Cl)cc1 (stereo not drawn) [compound 16, 5-(2-Chlorophenyl)-3-(4-chlorophenyl)-N-(4-sulfamoylphenyl)-4,5-dihydro-1H-pyrazole-1-carboxamide]	8.8	1.7	297	4.3		8
NS(=O)(=O)c1ccc(NC(=O)N2N=C(c3ccc(Cl)cc3)CC2c2ccc(Cl)cc2Cl)cc1 (stereo not drawn) [compound 17, 3-(4-Chlorophenyl)-5-(2,4-dichlorophenyl)-N-(4-sulfamoylphenyl)-4,5-dihydro-1H-pyrazole-1-carboxamide]	13.5	1.3	770	27.6	15	
NS(=O)(=O)c1ccc(NC(=O)N2N=C(c3ccc(Cl)cc3)CC2c2cccs2)cc1 (stereo not drawn) [compound 18, 3-(4-Chlorophenyl)-N-(4-sulfamoylphenyl)-5-(thiophen-2-yl)-4,5-dihydro-1H-pyrazole-1-carboxamide]	9.2	0.62	726	2.9	2.5	
NS(=O)(=O)c1ccc(NC(=O)N2N=C(c3ccc(Cl)cc3)CC2c2c(F)cccc2Cl)cc1 (stereo not drawn) [compound 19, 5-(2-Chloro-6-fluorophenyl)-3-(4-chlorophenyl)-N-(4-sulfamoylphenyl)-4,5-dihydro-1H-pyrazole-1-carboxamide]	10.8	6.8	42.7	2.3	2.7	
NS(=O)(=O)c1ccc(NC(=O)N2N=C(c3ccc(Cl)cc3)CC2c2ccccc2O)cc1 (stereo not drawn) [compound 20, 3-(4-Chlorophenyl)-5-(2-hydroxyphenyl)-N-(4-sulfamoylphenyl)-4,5-dihydro-1H-pyrazole-1-carboxamide]	7.6	0.99	74.2	2.1	76.6	
COc1ccc(C2CC(c3ccc(Cl)cc3)=NN2C(=O)Nc2ccc(S(N)(=O)=O)cc2)cc1 (stereo not drawn) [compound 21, 3-(4-Chlorophenyl)-5-(4-methoxyphenyl)-N-(4-sulfamoylphenyl)-4,5-dihydro-1H-pyrazole-1-carboxamide]	9.4	0.82	368	2.7	2.8	
COc1ccc(C2CC(c3ccc(Cl)cc3)=NN2C(=O)Nc2ccc(S(N)(=O)=O)cc2)cc1OC (stereo not drawn) [compound 22, 3-(4-Chlorophenyl)-5-(3,4-dimethoxyphenyl)-N-(4-sulfamoylphenyl)-4,5-dihydro-1H-pyrazole-1-carboxamide]	9.3	1.5	166	2.3	2.2	
NS(=O)(=O)c1ccc(NC(=O)N2N=C(c3ccc(Br)cc3)CC2c2ccccc2)cc1 (stereo not drawn) [compound 23, 3-(4-Bromophenyl)-5-phenyl-45-dihydro-pyrazole-1-carboxylic acid (4-sulfamoyl-phenyl)-amide]	6.3	6.7	44.4	2.9	1.4	
NS(=O)(=O)c1ccc(NC(=O)N2N=C(c3ccc(Br)cc3)CC2c2ccc(Cl)cc2)cc1 (stereo not drawn) [compound 24, 3-(4-Bromophenyl)-5-(4-chlorophenyl)-4,5-dihydro-pyrazole-1-carboxylic acid (4-sulfamoyl-phenyl)-amide]	10.7	0.89	45.5	2.7	14.3	
NS(=O)(=O)c1ccc(NC(=O)N2N=C(c3ccc(Br)cc3)CC2c2ccc(F)cc2)cc1 (stereo not drawn) [compound 25, 3-(4-Bromophenyl)-5-(4-flurophenyl)-4,5-dihydro-pyrazole-1-carboxylic acid (4-sulfamoyl-phenyl)-amide]	5.5	2.4	38.2	2.6	1.4	
